Results on 29 molecules are retold here after patent US20160200733A1, “SUBSTITUTED THIENO[2,3-B]PYRIDINE-2-CARBOXAMIDE ANALOGS AS POSITIVE ALLOSTERIC MODULATORS OF THE MUSCARINIC ACETYLCHOLINE RECEPTOR M4” (Vanderbilt University, priority 2013, published 2016).

This experiment has as its target T1, mAChR hM4 (Homo sapiens, UniProt P08173).
T1 construct: expressed in transfected cells; host or cells: CHO-K1 (Chinese hamster ovary) cells
T1 sequence (P08173 1-479): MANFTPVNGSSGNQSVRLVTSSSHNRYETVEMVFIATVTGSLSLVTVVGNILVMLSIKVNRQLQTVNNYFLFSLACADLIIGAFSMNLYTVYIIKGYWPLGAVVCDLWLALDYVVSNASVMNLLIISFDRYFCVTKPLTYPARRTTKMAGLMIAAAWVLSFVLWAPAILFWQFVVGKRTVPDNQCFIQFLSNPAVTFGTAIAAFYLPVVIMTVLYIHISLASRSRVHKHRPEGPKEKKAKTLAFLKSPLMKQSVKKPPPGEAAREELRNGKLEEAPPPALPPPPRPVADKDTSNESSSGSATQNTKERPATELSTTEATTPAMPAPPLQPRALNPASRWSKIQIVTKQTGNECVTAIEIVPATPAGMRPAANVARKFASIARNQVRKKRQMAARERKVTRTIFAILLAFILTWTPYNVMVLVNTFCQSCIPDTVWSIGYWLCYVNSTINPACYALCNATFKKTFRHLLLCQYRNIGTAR
Briefly: mAChR M4 cell-based functional assay (calcium flux, potentiation of EC20 acetylcholine response). Particulars: mAChR hM4 cell-line; for EC50: >10,000 estimated for low potency compounds lacking a plateau. From the text:
In one aspect, the disclosed compounds potentiate the agonist response (e.g., acetylcholine) of mAChR M4. In a further aspect, the disclosed compounds increase mAChR M4 response to non-maximal concentrations of agonist in the presence of compound compared to the response to agonist in the absence of compound. […] For example, activation of mAChR M4 activity can be determined by measurement of calcium flux in response to agonist, e.g. acetylcholine, in cells loaded with a Ca^2+-sensitive fluorescent dye (e.g., Fluo-4). In a further aspect, the calcium flux was measured as an increase in fluorescent static ratio. In a yet further aspect, positive allosteric modulator activity was analyzed as a concentration-dependent increase in the EC20 acetylcholine response (i.e. the response of mAChR M4 at a concentration of acetylcholine that yields 20% of the maximal response).
In one aspect, the disclosed compounds activate mAChR M4 response as an increase in calcium fluorescence in mAChR M4-transfected CHO-K1 cells in the presence of the compound, compared to the response of equivalent CHO-K1 cells in the absence of the compound. […] In a further aspect, the mAChR M4-transfected CHO-K1 cells are transfected with human mAChR M4. In a still further aspect, the mAChR M4-transfected CHO-K1 cells are transfected with rat mAChR M4.
Substituted 3-aminothieno[2,3-c]pyridine-2-carboxamide analogs were synthesized as described above. Activity (EC50 and Emax) was determined in the mAChR M4 cell-based functional assay as described above, and the data are shown in Table II for assays conducted using mAChR hM4 cell-line. The compound number corresponds to the compound numbers used in Table I.

Where only a bound is given, the exact number is not on record here.

One may read the EC50 as the concentration at which the effect is half-maximal. As to `Cc1nc2sc(C(=O)NC3COC3)c(Br)c2c(C)c1Cl` [Compound 61, 3-bromo-5-chloro-4,6-dimethyl-N-(oxetan-3-yl)thieno[2,3-b]pyridine-2-carboxamide], the EC50 is 0.36 µM. Besides, under “% ACh maximum at 30 μM”, the “Emax (%)” value turned out to be 70%.

Regarding `Cc1nc2sc(C(=O)NC3COC3)c(-c3ccccc3)c2c(C)c1Cl` [Compound 62, 5-chloro-4,6-dimethyl-N-(oxetan-3-yl)-3-phenylthieno[2,3-b]pyridine-2-carboxamide], the EC50 is > 10 µM.

The Emax is the greatest response seen or fitted, relative to the assay's reference. Consider `Cc1nc2sc(C(=O)NC3COC3)c(C)c2c(C)c1Cl` [Compound 63, 5-chloro-3,4,6-trimethyl-N-(oxetan-3-yl)thieno[2,3-b]pyridine-2-carboxamide], for which the 50% effective concentration (EC50) was 0.41 µM. Moreover, the Emax at 30 µM (% ACh maximum at 30 μM) was determined as 76%.

With `Cc1nc2sc(C(=O)N3CCC(c4ccccc4)C3)c(C3CC3)c2c(C)c1Cl` (stereo not shown) [Compound 64, (5-chloro-3-cyclopropyl-4,6-dimethylthieno[2,3-b]pyridin-2-yl)(3-phenylpyrrolidin-1-yl)methanone], the half-maximal effective concentration (EC50) is > 10 µM.

Regarding `COc1ccc(C2CC2NC(=O)c2sc3nc(C)c(Cl)c(C)c3c2C2CC2)cc1` (stereo not shown) [Compound 65, 5-chloro-3-cyclopropyl-N-(2-(4-methoxyphenyl)cyclopropyl)-4,6-dimethylthieno[2,3-b]pyridine-2-carboxamide], the EC50 is > 10 µM.

Turning to `COc1ccc(CNC(=O)c2sc3nc(C)cc(C)c3c2-c2cnn(C)c2)cc1F` [Compound 66, N-(3-fluoro-4-methoxybenzyl)-4,6-dimethyl-3-(1-methyl-1H-pyrazol-4-yl)thieno[2,3-b]pyridine-2-carboxamide], the EC50 was > 10 µM.

With `Cc1cc(C)c2c(-c3cnn(C)c3)c(C(=O)N3CCC(c4ccccc4)C3)sc2n1` (stereo not shown) [Compound 67, (4,6-dimethyl-3-(1-methyl-1H-pyrazol-4-yl)thieno[2,3-b]pyridin-2-yl)(3-phenylpyrrolidin-1-yl)methanone], the EC50 is > 10 µM.

`COc1ccc(C2CC2NC(=O)c2sc3nc(C)cc(C)c3c2-c2cnn(C)c2)cc1` (stereo not shown) [Compound 68, N-(2-(4-methoxyphenyl)cyclopropyl)-4,6-dimethyl-3-(1-methyl-1H-pyrazol-4-yl)thieno[2,3-b]pyridine-2-carboxamide]: the EC50 is > 10 µM.

Consider `COc1ccc(CNC(=O)c2sc3nc(C)c(Cl)c(C)c3c2C2CC2)cc1F` [Compound 69, 5-chloro-3-cyclopropyl-N-(3-fluoro-4-methoxybenzyl)-4,6-dimethylthieno[2,3-b]pyridine-2-carboxamide], for which the EC50 is > 10 µM.

As for `Cc1cc(C)c2c(-c3cnn(C)c3)c(C(=O)NCc3ccc4c(c3)CCO4)sc2n1` [Compound 70, N-((2,3-dihydrobenzofuran-5-yl)methyl)-4,6-dimethyl-3-(1-methyl-1H-pyrazol-4-yl)thieno[2,3-b]pyridine-2-carboxamide], the half-maximal effective concentration (EC50) was > 10 µM.

Consider `Cc1cc(C)c2c(-c3cnn(C)c3)c(C(=O)NCc3cnn(-c4ccccc4)c3)sc2n1` [Compound 71, 4,6-dimethyl-3-(1-methyl-1H-pyrazol-4-yl)-N-((1-phenyl-1H-pyrazol-4-yl)methyl)thieno[2,3-b]pyridine-2-carboxamide], for which the concentration giving a half-maximal response (EC50) is > 10 µM.

In the case of `Cc1nc2sc(C(=O)N3CC(c4ccccc4)C3)c(C3CC3)c2c(C)c1Cl` [Compound 72, (5-chloro-3-cyclopropyl-4,6-dimethylthieno[2,3-b]pyridin-2-yl)(3-phenylazetidin-1-yl)methanone], the EC50 was > 10 µM.

As for `Cc1nc2sc(C(=O)NCc3cnn(-c4ccccc4)c3)c(C3CC3)c2c(C)c1Cl` [Compound 73, 5-chloro-3-cyclopropyl-4,6-dimethyl-N-((1-phenyl-1H-pyrazol-4-yl)methyl)thieno[2,3-b]pyridine-2-carboxamide], the EC50 is > 10 µM.

`Cc1cc(C)c2cc(C(=O)NC3COC3)sc2n1` [Compound 74, 4,6-dimethyl-N-(oxetan-3-yl)thieno[2,3-b]pyridine-2-carboxamide]: the EC50 is > 10 µM. Moreover, the Emax at 30 µM (% ACh maximum at 30 μM) was determined as 46%.

For `Cc1cc(C)c2cc(C(=O)NC3CN(c4cccnc4)C3)sc2n1` [Compound 75, 4,6-dimethyl-N-(1-(pyridin-3-yl)azetidin-3-yl)thieno[2,3-b]pyridine-2-carboxamide], the EC50 is 1.2 µM. The maximum response (Emax) at 30 µM (% ACh maximum at 30 μM) came out at 67%.

As for `Cc1cc(C)c2cc(C(=O)NC3CN(c4ccc(C(F)(F)F)nc4)C3)sc2n1` [Compound 76, 4,6-dimethyl-N-(1-(6-(trifluoromethyl)pyridin-3-yl)azetidin-3-yl)thieno[2,3-b]pyridine-2-carboxamide], the EC50 was > 10 µM.

Regarding `Cc1cc(C)c2cc(C(=O)NCc3cnn(-c4ccccc4)c3)sc2n1` [Compound 77, 4,6-dimethyl-N-((1-phenyl-1H-pyrazol-4-yl)methyl)thieno[2,3-b]pyridine-2-carboxamide], the EC50 was > 10 µM.

Regarding `Cc1cc(C)c2cc(C(=O)NCc3ccc(-c4cccnc4F)cc3)sc2n1` [Compound 78, N-(4-(2-fluoropyridin-3-yl)benzyl)-4,6-dimethylthieno[2,3-b]pyridine-2-carboxamide], the EC50 is > 10 µM. Also, the Emax at 30 µM (% ACh maximum at 30 μM) amounted to 34%.

As to `Cc1cc(C)c2cc(C(=O)NCc3ccc(-c4ccnnc4)s3)sc2n1` [Compound 79, 4,6-dimethyl-N-((5-(pyridazin-4-yl)thiophen-2-yl)methyl)thieno[2,3-b]pyridine-2-carboxamide], the EC50 was > 10 µM.

With `Cc1cc(C)c2cc(C(=O)NCC3CCN(c4ccccc4)C3)sc2n1` (stereo not shown) [Compound 80, 4,6-dimethyl-N-((1-phenylpyrrolidin-3-yl)methyl)thieno[2,3-b]pyridine-2-carboxamide], the EC50 is > 10 µM.

In the case of `COc1ccc(C2CC2NC(=O)c2cc3c(C)cc(C)nc3s2)cc1` (stereo not shown) [Compound 81, N-(2-(4-methoxyphenyl)cyclopropyl)-4,6-dimethylthieno[2,3-b]pyridine-2-carboxamide], the concentration giving a half-maximal response (EC50) was 0.82 µM. For the setting “% ACh maximum at 30 μM”, the Emax at 30 µM came to 30%.

As for `Cc1cc(C)c2cc(C(=O)N3CC(c4ccccc4)C3)sc2n1` [Compound 82, (4,6-dimethylthieno[2,3-b]pyridin-2-yl)(3-phenylazetidin-1-yl)methanone], the EC50 was 2.4 µM. Moreover, the Emax at 30 µM (% ACh maximum at 30 μM) worked out at 34%.

As for `Cc1cc(C)c2cc(C(=O)N3CCC(c4ccccc4)C3)sc2n1` (stereo not shown) [Compound 83, (4,6-dimethylthieno[2,3-b]pyridin-2-yl)(3-phenylpyrrolidin-1-yl)methanone], the EC50 was > 10 µM.

Consider `COc1ccc(CNC(=O)c2cc3c(C)cc(C)nc3s2)cc1F` [Compound 84, N-(3-fluoro-4-methoxybenzyl)-4,6-dimethylthieno[2,3-b]pyridine-2-carboxamide], for which the EC50 was 6.7 µM. For the setting “% ACh maximum at 30 μM”, the Emax at 30 µM is 49%.

`Cc1cc(C)c2cc(C(=O)NCc3ccc(S(=O)(=O)C(F)(F)F)cc3)sc2n1` [Compound 85, 4,6-dimethyl-N-(4-((trifluoromethyl)sulfonyl)benzyl)thieno[2,3-b]pyridine-2-carboxamide]: the EC50 was > 10 µM.

In the case of `Cc1nc2sc(C(=O)N3CCC(c4ccccc4)C3)c(-c3cnn(C)c3)c2c(C)c1Cl` (stereo not shown) [Compound 86, (5-chloro-4,6-dimethyl-3-(1-methyl-1H-pyrazol-4-yl)thieno[2,3-b]pyridin-2-yl)(3-phenylpyrrolidin-1-yl)methanone], the EC50 was > 10 µM.

Consider `Cc1nc2sc(C(=O)NC3CCC3)c(-c3cnn(C)c3)c2c(C)c1Cl` [Compound 87, 5-chloro-N-cyclobutyl-4,6-dimethyl-3-(1-methyl-1H-pyrazol-4-yl)thieno[2,3-b]pyridine-2-carboxamide], for which the EC50 is > 10 µM.

As for `Cc1nc2sc(C(=O)NC3CCCOC3)c(-c3cnn(C)c3)c2c(C)c1Cl` (stereo not shown) [Compound 88, 5-chloro-4,6-dimethyl-3-(1-methyl-1H-pyrazol-4-yl)-N-(tetrahydro-2H-pyran-3-yl)thieno[2,3-b]pyridine-2-carboxamide], the EC50 was > 10 µM.

As to `Cc1nc2sc(C(=O)NC3CCS(=O)(=O)C3)c(-c3cnn(C)c3)c2c(C)c1Cl` (stereo not shown) [Compound 89, 5-chloro-N-(1,1-dioxidotetrahydrothiophen-3-yl)-4,6-dimethyl-3-(1-methyl-1H-pyrazol-4-yl)thieno[2,3-b]pyridine-2-carboxamide], the EC50 is > 10 µM.
